The values that follow come from ChEMBL document CHEMBL3596148, “Meridianin derivatives as potent Dyrk1A inhibitors and neuroprotective agents” (Bioorg Med Chem Lett, 2015).

The target in experiment [1] is T1, Dual specificity tyrosine-phosphorylation-regulated kinase 2 (Homo sapiens, UniProt Q92630).
T1 sequence (Q92630 whole entry): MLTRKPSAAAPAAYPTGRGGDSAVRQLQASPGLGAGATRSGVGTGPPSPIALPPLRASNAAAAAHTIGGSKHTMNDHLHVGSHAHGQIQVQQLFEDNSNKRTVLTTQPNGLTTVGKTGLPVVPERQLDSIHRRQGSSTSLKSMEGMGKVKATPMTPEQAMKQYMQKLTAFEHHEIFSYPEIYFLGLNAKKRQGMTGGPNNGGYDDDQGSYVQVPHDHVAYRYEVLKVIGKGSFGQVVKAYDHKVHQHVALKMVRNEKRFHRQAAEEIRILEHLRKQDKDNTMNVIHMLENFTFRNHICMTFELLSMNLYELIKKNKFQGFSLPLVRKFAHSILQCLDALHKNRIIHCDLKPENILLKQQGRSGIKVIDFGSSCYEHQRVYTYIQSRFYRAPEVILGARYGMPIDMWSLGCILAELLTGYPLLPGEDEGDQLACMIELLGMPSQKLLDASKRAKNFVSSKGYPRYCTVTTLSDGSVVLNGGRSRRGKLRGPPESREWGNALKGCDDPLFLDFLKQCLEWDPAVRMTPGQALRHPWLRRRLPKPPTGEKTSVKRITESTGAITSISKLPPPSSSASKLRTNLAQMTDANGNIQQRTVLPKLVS
Put plainly: Inhibition of Dyrk2 (unknown origin) using Woodtide as substrate after 30 mins by P81 membrane assay in presence of [33P]-g-ATP.

The target of experiment [2] is T2, Dual specificity tyrosine-phosphorylation-regulated kinase 3 (Homo sapiens, UniProt O43781).
T2 sequence (O43781 whole entry): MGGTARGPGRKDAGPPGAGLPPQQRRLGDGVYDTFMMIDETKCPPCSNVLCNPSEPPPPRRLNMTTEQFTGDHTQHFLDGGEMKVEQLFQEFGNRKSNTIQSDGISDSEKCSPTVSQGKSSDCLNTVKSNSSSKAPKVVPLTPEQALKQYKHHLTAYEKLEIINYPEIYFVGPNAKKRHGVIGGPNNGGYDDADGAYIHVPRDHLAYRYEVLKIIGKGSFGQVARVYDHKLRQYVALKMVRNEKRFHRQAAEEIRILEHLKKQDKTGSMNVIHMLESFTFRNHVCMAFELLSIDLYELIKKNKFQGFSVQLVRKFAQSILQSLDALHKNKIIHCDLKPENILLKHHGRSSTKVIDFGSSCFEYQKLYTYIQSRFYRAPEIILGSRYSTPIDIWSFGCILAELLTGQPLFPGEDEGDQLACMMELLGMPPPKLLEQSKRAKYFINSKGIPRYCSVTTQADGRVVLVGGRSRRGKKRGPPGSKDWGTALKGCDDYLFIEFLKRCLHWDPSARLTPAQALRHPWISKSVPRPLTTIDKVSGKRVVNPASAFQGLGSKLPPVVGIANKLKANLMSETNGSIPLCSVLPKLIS
Put plainly: Inhibition of Dyrk3 (unknown origin) using Woodtide as substrate after 30 mins by P81 membrane assay in presence of [33P]-g-ATP.

The target in experiment [3] is AMP-activated protein kinase, AMPK (Homo sapiens) (UniProt P54646+O43741+P54619+Q9UGJ0+Q9Y478+Q13131+Q9UGI9). Put plainly: Inhibition of AMPK (unknown origin) at 0.5 uM relative to control. It is filed as protein-complex assay.
Experiment [4] addresses Insulin-like growth factor 1 receptor (Homo sapiens) (UniProt P08069). Description: Inhibition of IGF-1R (unknown origin) at 0.5 uM relative to control.

Sequence of Insulin-like growth factor 1 receptor (Homo sapiens) (P08069 31-736 limits assumed): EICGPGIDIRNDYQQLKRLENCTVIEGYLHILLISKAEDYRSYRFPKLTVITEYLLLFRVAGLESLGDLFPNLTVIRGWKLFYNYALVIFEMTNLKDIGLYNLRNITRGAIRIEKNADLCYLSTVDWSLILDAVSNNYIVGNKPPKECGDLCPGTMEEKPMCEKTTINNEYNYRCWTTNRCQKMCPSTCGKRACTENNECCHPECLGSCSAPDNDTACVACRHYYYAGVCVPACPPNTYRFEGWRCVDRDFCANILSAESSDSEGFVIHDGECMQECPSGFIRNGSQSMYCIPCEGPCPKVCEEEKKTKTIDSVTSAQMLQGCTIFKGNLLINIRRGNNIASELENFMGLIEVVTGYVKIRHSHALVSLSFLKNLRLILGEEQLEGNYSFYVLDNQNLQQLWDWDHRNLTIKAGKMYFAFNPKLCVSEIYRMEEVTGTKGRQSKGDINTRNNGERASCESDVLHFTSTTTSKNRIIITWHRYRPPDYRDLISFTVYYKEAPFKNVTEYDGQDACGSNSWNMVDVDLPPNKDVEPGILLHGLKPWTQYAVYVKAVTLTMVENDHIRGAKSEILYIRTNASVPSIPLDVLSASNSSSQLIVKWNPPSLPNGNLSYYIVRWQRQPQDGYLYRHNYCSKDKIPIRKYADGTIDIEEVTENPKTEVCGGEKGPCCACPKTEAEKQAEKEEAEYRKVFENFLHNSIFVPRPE
Sequence of Insulin-like growth factor 1 receptor (Homo sapiens) (P08069 741-1367 limits assumed): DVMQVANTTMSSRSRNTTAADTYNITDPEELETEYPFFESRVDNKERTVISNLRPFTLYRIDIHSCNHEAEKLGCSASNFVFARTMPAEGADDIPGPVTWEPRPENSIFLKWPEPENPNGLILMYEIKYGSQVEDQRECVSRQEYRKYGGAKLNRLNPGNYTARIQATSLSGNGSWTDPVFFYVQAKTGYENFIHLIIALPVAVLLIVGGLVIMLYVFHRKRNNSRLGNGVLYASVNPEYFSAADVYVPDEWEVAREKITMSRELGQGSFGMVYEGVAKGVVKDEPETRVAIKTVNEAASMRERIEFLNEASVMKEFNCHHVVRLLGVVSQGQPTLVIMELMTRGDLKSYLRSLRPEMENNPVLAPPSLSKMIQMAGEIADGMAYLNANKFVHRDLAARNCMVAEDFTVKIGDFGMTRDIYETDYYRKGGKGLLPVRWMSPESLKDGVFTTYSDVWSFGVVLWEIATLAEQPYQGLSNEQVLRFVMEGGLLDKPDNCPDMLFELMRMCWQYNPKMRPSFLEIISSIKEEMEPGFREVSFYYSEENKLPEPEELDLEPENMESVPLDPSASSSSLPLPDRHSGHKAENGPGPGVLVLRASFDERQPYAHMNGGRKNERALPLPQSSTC

As for `Nc1nccc(-c2cn(C(=O)N3CCOCC3)c3ccc(Br)cc23)n1`, the concentration for half-maximal inhibition (IC50) in experiment [1] was found to be 1.4 µM; in experiment [2] it was 2.2 µM. The inhibition was determined as 4.4% in experiment [3] and 2.1% in experiment [4].

A word on the IC50: it is the concentration that gives 50% inhibition. A word on the inhibition: it is the relative decrease from the control value, in per cent. Low readings indicate a response near the control, high ones a response far below the control.
